Measurements reported in publication PMC10617569, “The Ustilago maydis AA10 LPMO is active on fungal cell wall chitin” (Applied and Environmental Microbiology, 2023).

Biological target: T1, UmAA10_cd (Mycosarcoma maydis, UniProt A0A0D1CHL0)
T1 construct: gene UMAG_05439; catalytic domain only; C-terminal extension removed between Gly203 and Gly204; C-terminal (His)6-tag; made in Pichia pastoris SuperMan5; copper loaded
Assay: Amplex red / HRP assay of H2O2 production, absorbance at […] nm
Type: biochemical
Settings: reductant of the LPMO oxidase reaction, 50 µM ascorbic acid with O2; 1 µM enzyme; sodium phosphate 50 mM pH 7.0; 23°C

T1 sequence (A0A0D1CHL0 33-203): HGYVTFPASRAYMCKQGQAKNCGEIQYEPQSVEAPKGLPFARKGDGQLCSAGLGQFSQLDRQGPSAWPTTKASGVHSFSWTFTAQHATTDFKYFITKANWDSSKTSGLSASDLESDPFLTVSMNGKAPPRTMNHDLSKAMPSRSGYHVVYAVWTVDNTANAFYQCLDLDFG

O=C1O[C@H]([C@@H](O)CO)C(O)=C1O [ascorbic acid]
Amplex red / HRP assay of H2O2 production, absorbance at 575 nm: Using ascorbic acid (AscA) as a reductant, we found that UmAA10_cd produces H2O2
